Reference: ChEMBL document CHEMBL3421620, “A facile synthesis of novel miconazole analogues and the evaluation of their antifungal activity” (2015)
In brackets after ≈: the same amount, converted by molar mass.

Legend:
Assay type in all cases: functional
Candida albicans [1] = assay: Antifungal activity against Candida albicans Strain 1 by broth microdilution method
Candida albicans [2] = assay: Antifungal activity against Candida albicans ATCC 10231 by broth microdilution method
Candida tropicalis = assay: Antifungal activity against Candida tropicalis ATCC 13803 by broth microdilution method
Cyberlindnera jadinii = assay: Antifungal activity against Candida utilis ATCC 9226 by broth microdilution method; details: Williopsis jadinii
Candida albicans [3] = assay: Antifungal activity against Candida albicans Strain 26 by broth microdilution method
Candida albicans [4] = assay: Antifungal activity against Candida albicans Strain 6 by broth microdilution method
Candida albicans [5] = assay: Antifungal activity against Candida albicans Strain 2 by broth microdilution method
Nakaseomyces glabratus = assay: Antifungal activity against Candida glabrata by broth microdilution method
Yarrowia lipolytica = assay: Antifungal activity against Candida lipolytica by broth microdilution method
Candida albicans [6] = assay: Antifungal activity against Candida albicans Strain 8 by broth microdilution method
Candida albicans [7] = assay: Antifungal activity against Candida albicans Strain 20 by broth microdilution method
Candida albicans [8] = assay: Antifungal activity against Candida albicans Strain 18 by broth microdilution method
Candida albicans [9] = assay: Antifungal activity against Candida albicans Strain 28 by broth microdilution method
Candida albicans [10] = assay: Antifungal activity against Candida albicans Strain 24 by broth microdilution method
Candida albicans [11] = assay: Antifungal activity against Candida albicans Strain 4 by broth microdilution method
Candida albicans [12] = assay: Antifungal activity against Candida albicans Strain 29 by broth microdilution method
Candida albicans [13] = assay: Antifungal activity against Candida albicans Strain 9 by broth microdilution method
Candida albicans [14] = assay: Antifungal activity against Candida albicans Strain 12 by broth microdilution method
Candida albicans [15] = assay: Antifungal activity against Candida albicans Strain 22 by broth microdilution method
Candida albicans [16] = assay: Antifungal activity against Candida albicans Strain 13 by broth microdilution method
Candida albicans [17] = assay: Antifungal activity against Candida albicans Strain 19 by broth microdilution method
Candida albicans [18] = assay: Antifungal activity against Candida albicans Strain 16 by broth microdilution method
Candida albicans [19] = assay: Antifungal activity against Candida albicans Strain 14 by broth microdilution method
Kluyveromyces marxianus = assay: Antifungal activity against Candida pseudotropicalis by broth microdilution method
Pichia kudriavzevii = assay: Antifungal activity against Candida krusei by broth microdilution method
Candida albicans [20] = assay: Antifungal activity against Candida albicans Strain 7 by broth microdilution method
Candida albicans [21] = assay: Antifungal activity against Candida albicans Strain 10 by broth microdilution method
Candida albicans [22] = assay: Antifungal activity against Candida albicans Strain 27 by broth microdilution method
Candida albicans [23] = assay: Antifungal activity against Candida albicans Strain 25 by broth microdilution method
[24] = Antifungal activity against Trichosporon cutaneum ATCC 28592 by broth microdilution method; details: Cutaneotrichosporon cutaneum
Candida parapsilosis = assay: Antifungal activity against Candida parapsilosis by broth microdilution method; details: Lodderomyces parapsilosis
Candida albicans [25] = assay: Antifungal activity against Candida albicans Strain 3 by broth microdilution method
Candida albicans [26] = assay: Antifungal activity against Candida albicans Strain 17 by broth microdilution method
Candida albicans [27] = assay: Antifungal activity against Candida albicans Strain 5 by broth microdilution method
Aspergillus fumigatus = assay: Antifungal activity against Aspergillus fumigatus 16907 by broth microdilution method
Mucor hiemalis = assay: Antifungal activity against Mucor hiemalis ATCC 8690 by broth microdilution method
Candida albicans [28] = assay: Antifungal activity against Candida albicans Strain 21 by broth microdilution method
Candida albicans [29] = assay: Antifungal activity against Candida albicans Strain 23 by broth microdilution method
Candida albicans [30] = assay: Antifungal activity against Candida albicans Strain 15 by broth microdilution method
Candida albicans [31] = assay: Antifungal activity against Candida albicans Strain 11 by broth microdilution method
Rhizopus arrhizus = assay: Antifungal activity against Rhizopus oryzae ATCC 10329 by broth microdilution method

CCC(C)n1ncn(-c2ccc(N3CCN(c4ccc(OCC5COC(Cn6cncn6)(c6ccc(Cl)cc6Cl)O5)cc4)CC3)cc2)c1=O (stereo not drawn) [ITRACONAZOLE]
MIC (Candida albicans [1]): 0.06 µg/mL (≈ 0.085 µM) | MIC (Candida albicans [2]): 0.06 µg/mL (≈ 0.085 µM) | MIC (Candida tropicalis): 0.06 µg/mL (≈ 0.085 µM) | MIC (Cyberlindnera jadinii): 0.5 µg/mL (≈ 0.709 µM) | MIC (Candida albicans [3]): 0.12 µg/mL (≈ 0.17 µM) | MIC (Candida albicans [4]): 0.06 µg/mL (≈ 0.085 µM) | MIC (Candida albicans [5]): 0.06 µg/mL (≈ 0.085 µM) | MIC (Nakaseomyces glabratus): 0.25 µg/mL (≈ 0.354 µM) | MIC (Yarrowia lipolytica): 0.12 µg/mL (≈ 0.17 µM) | MIC (Candida albicans [6]): 0.03 µg/mL (≈ 0.0425 µM) | MIC (Candida albicans [7]): 0.06 µg/mL (≈ 0.085 µM) | MIC (Candida albicans [8]): 0.03 µg/mL (≈ 0.0425 µM) | MIC (Candida albicans [9]): 0.03 µg/mL (≈ 0.0425 µM) | MIC (Candida albicans [10]): 0.03 µg/mL (≈ 0.0425 µM) | MIC (Candida albicans [11]): 0.03 µg/mL (≈ 0.0425 µM) | MIC (Candida albicans [12]): 0.12 µg/mL (≈ 0.17 µM) | MIC (Candida albicans [13]): 0.12 µg/mL (≈ 0.17 µM) | MIC (Candida albicans [14]): 0.12 µg/mL (≈ 0.17 µM) | MIC (Candida albicans [15]): 0.03 µg/mL (≈ 0.0425 µM) | MIC (Candida albicans [16]): 0.06 µg/mL (≈ 0.085 µM) | MIC (Candida albicans [17]): 0.06 µg/mL (≈ 0.085 µM) | MIC (Candida albicans [18]): 0.06 µg/mL (≈ 0.085 µM) | MIC (Candida albicans [19]): 0.06 µg/mL (≈ 0.085 µM) | MIC (Kluyveromyces marxianus): 0.25 µg/mL (≈ 0.354 µM) | MIC (Pichia kudriavzevii): 1 µg/mL (≈ 1.42 µM) | MIC (Candida albicans [20]): 0.06 µg/mL (≈ 0.085 µM) | MIC (Candida albicans [21]): 0.06 µg/mL (≈ 0.085 µM) | MIC (Candida albicans [22]): 0.06 µg/mL (≈ 0.085 µM) | MIC (Candida albicans [23]): 0.12 µg/mL (≈ 0.17 µM) | MIC [24]: 8 µg/mL (≈ 11.3 µM) | MIC (Candida parapsilosis): 0.25 µg/mL (≈ 0.354 µM) | MIC (Candida albicans [25]): 0.03 µg/mL (≈ 0.0425 µM) | MIC (Candida albicans [26]): 0.12 µg/mL (≈ 0.17 µM) | MIC (Candida albicans [27]): 0.06 µg/mL (≈ 0.085 µM) | MIC (Aspergillus fumigatus): 1 µg/mL (≈ 1.42 µM) | MIC (Mucor hiemalis): > 16 µg/mL | MIC (Candida albicans [28]): 0.12 µg/mL (≈ 0.17 µM) | MIC (Candida albicans [29]): 0.06 µg/mL (≈ 0.085 µM) | MIC (Candida albicans [30]): 0.06 µg/mL (≈ 0.085 µM) | MIC (Candida albicans [31]): 0.06 µg/mL (≈ 0.085 µM) | MIC (Rhizopus arrhizus): > 16 µg/mL

COc1ccc(CCOC(Cn2ccnc2)c2ccc(Cl)cc2Cl)cc1OC (stereo not drawn)
MIC (Candida albicans [1]): 0.5 µg/mL (≈ 1.19 µM) | MIC (Candida albicans [2]): 0.12 µg/mL (≈ 0.285 µM) | MIC (Candida tropicalis): 1 µg/mL (≈ 2.37 µM) | MIC (Cyberlindnera jadinii): 1 µg/mL (≈ 2.37 µM) | MIC (Candida albicans [3]): 0.5 µg/mL (≈ 1.19 µM) | MIC (Candida albicans [4]): 0.12 µg/mL (≈ 0.285 µM) | MIC (Candida albicans [5]): 0.5 µg/mL (≈ 1.19 µM) | MIC (Nakaseomyces glabratus): 0.5 µg/mL (≈ 1.19 µM) | MIC (Yarrowia lipolytica): 0.5 µg/mL (≈ 1.19 µM) | MIC (Candida albicans [6]): 0.12 µg/mL (≈ 0.285 µM) | MIC (Candida albicans [7]): 0.12 µg/mL (≈ 0.285 µM) | MIC (Candida albicans [8]): 0.06 µg/mL (≈ 0.142 µM) | MIC (Candida albicans [9]): 0.25 µg/mL (≈ 0.593 µM) | MIC (Candida albicans [10]): 0.5 µg/mL (≈ 1.19 µM) | MIC (Candida albicans [11]): 0.06 µg/mL (≈ 0.142 µM) | MIC (Candida albicans [12]): 0.5 µg/mL (≈ 1.19 µM) | MIC (Candida albicans [13]): 0.5 µg/mL (≈ 1.19 µM) | MIC (Candida albicans [14]): 0.5 µg/mL (≈ 1.19 µM) | MIC (Candida albicans [15]): 0.12 µg/mL (≈ 0.285 µM) | MIC (Candida albicans [16]): 0.5 µg/mL (≈ 1.19 µM) | MIC (Candida albicans [17]): 0.12 µg/mL (≈ 0.285 µM) | MIC (Candida albicans [18]): 0.12 µg/mL (≈ 0.285 µM) | MIC (Candida albicans [19]): 0.5 µg/mL (≈ 1.19 µM) | MIC (Kluyveromyces marxianus): 1 µg/mL (≈ 2.37 µM) | MIC (Pichia kudriavzevii): 2 µg/mL (≈ 4.75 µM) | MIC (Candida albicans [20]): 0.5 µg/mL (≈ 1.19 µM) | MIC (Candida albicans [21]): 0.5 µg/mL (≈ 1.19 µM) | MIC (Candida albicans [22]): 0.25 µg/mL (≈ 0.593 µM) | MIC (Candida albicans [23]): 0.5 µg/mL (≈ 1.19 µM) | MIC [24]: 16 µg/mL (≈ 38 µM) | MIC (Candida parapsilosis): 2 µg/mL (≈ 4.75 µM) | MIC (Candida albicans [25]): 0.12 µg/mL (≈ 0.285 µM) | MIC (Candida albicans [26]): 0.5 µg/mL (≈ 1.19 µM) | MIC (Candida albicans [27]): 0.5 µg/mL (≈ 1.19 µM) | MIC (Aspergillus fumigatus): 4 µg/mL (≈ 9.49 µM) | MIC (Mucor hiemalis): > 16 µg/mL | MIC (Candida albicans [28]): 0.5 µg/mL (≈ 1.19 µM) | MIC (Candida albicans [29]): 0.12 µg/mL (≈ 0.285 µM) | MIC (Candida albicans [30]): 0.5 µg/mL (≈ 1.19 µM) | MIC (Candida albicans [31]): 0.5 µg/mL (≈ 1.19 µM) | MIC (Rhizopus arrhizus): > 16 µg/mL

OCc1ccc(COC(Cn2ccnc2)c2ccc(Cl)cc2Cl)cc1 (stereo not drawn)
MIC (Candida albicans [1]): 0.12 µg/mL (≈ 0.318 µM) | MIC (Candida albicans [2]): 0.12 µg/mL (≈ 0.318 µM) | MIC (Candida tropicalis): 0.5 µg/mL (≈ 1.33 µM) | MIC (Cyberlindnera jadinii): 0.5 µg/mL (≈ 1.33 µM) | MIC (Candida albicans [3]): 0.25 µg/mL (≈ 0.663 µM) | MIC (Candida albicans [4]): 0.12 µg/mL (≈ 0.318 µM) | MIC (Candida albicans [5]): 0.12 µg/mL (≈ 0.318 µM) | MIC (Nakaseomyces glabratus): 0.5 µg/mL (≈ 1.33 µM) | MIC (Yarrowia lipolytica): 0.25 µg/mL (≈ 0.663 µM) | MIC (Candida albicans [6]): 0.12 µg/mL (≈ 0.318 µM) | MIC (Candida albicans [7]): 0.06 µg/mL (≈ 0.159 µM) | MIC (Candida albicans [8]): 0.06 µg/mL (≈ 0.159 µM) | MIC (Candida albicans [9]): 0.12 µg/mL (≈ 0.318 µM) | MIC (Candida albicans [10]): 0.12 µg/mL (≈ 0.318 µM) | MIC (Candida albicans [11]): 0.12 µg/mL (≈ 0.318 µM) | MIC (Candida albicans [12]): 0.5 µg/mL (≈ 1.33 µM) | MIC (Candida albicans [13]): 0.5 µg/mL (≈ 1.33 µM) | MIC (Candida albicans [14]): 0.12 µg/mL (≈ 0.318 µM) | MIC (Candida albicans [15]): 0.12 µg/mL (≈ 0.318 µM) | MIC (Candida albicans [16]): 0.12 µg/mL (≈ 0.318 µM) | MIC (Candida albicans [17]): 0.12 µg/mL (≈ 0.318 µM) | MIC (Candida albicans [18]): 0.12 µg/mL (≈ 0.318 µM) | MIC (Candida albicans [19]): 0.12 µg/mL (≈ 0.318 µM) | MIC (Kluyveromyces marxianus): 0.5 µg/mL (≈ 1.33 µM) | MIC (Pichia kudriavzevii): 1 µg/mL (≈ 2.65 µM) | MIC (Candida albicans [20]): 0.12 µg/mL (≈ 0.318 µM) | MIC (Candida albicans [21]): 0.12 µg/mL (≈ 0.318 µM) | MIC (Candida albicans [22]): 0.12 µg/mL (≈ 0.318 µM) | MIC (Candida albicans [23]): 0.12 µg/mL (≈ 0.318 µM) | MIC [24]: 16 µg/mL (≈ 42.4 µM) | MIC (Candida parapsilosis): 1 µg/mL (≈ 2.65 µM) | MIC (Candida albicans [25]): 0.12 µg/mL (≈ 0.318 µM) | MIC (Candida albicans [26]): 0.12 µg/mL (≈ 0.318 µM) | MIC (Candida albicans [27]): 0.12 µg/mL (≈ 0.318 µM) | MIC (Aspergillus fumigatus): 4 µg/mL (≈ 10.6 µM) | MIC (Mucor hiemalis): > 16 µg/mL | MIC (Candida albicans [28]): 0.25 µg/mL (≈ 0.663 µM) | MIC (Candida albicans [29]): 0.25 µg/mL (≈ 0.663 µM) | MIC (Candida albicans [30]): 0.25 µg/mL (≈ 0.663 µM) | MIC (Candida albicans [31]): 0.25 µg/mL (≈ 0.663 µM) | MIC (Rhizopus arrhizus): > 16 µg/mL
